Calls of active or inactive are those of the source. The calls are words filed in the database; no cut-off is given here.
How the values were obtained:
[1] = molecular target: T1, Serine/threonine-protein kinase mTOR (Homo sapiens, UniProt P42345); experiment: Inhibition of mTOR
[2] = molecular target: T1, Serine/threonine-protein kinase mTOR; experiment: Inhibition of PDGF-activated mTOR signaling in rat-1 fibroblasts assessed as S6K1 Thr389 site phosphorylation by Western blot
[3] = molecular target: T1, Serine/threonine-protein kinase mTOR; experiment: Inhibition of PDGF-activated mTOR signaling in rat-1 fibroblasts assessed as Akt Ser473 site phosphorylation by Western blot
[4] = molecular target: Hepatocyte growth factor receptor (Homo sapiens) (UniProt P08581); experiment: Inhibition of MET at 5 uM
[5] = molecular target: Insulin receptor (Homo sapiens) (UniProt P06213); experiment: Inhibition of INSR at 5 uM
[6] = system: Fibroblast; experiment: Induction of apoptosis in TSC1-deficient mouse embryo fibroblasts assessed as level of nucleosomes in cell cytoplasm at 100 nM after 24 hrs; format: functional, cell-based
[7] = molecular target: Mitogen-activated protein kinase kinase kinase kinase 4 (Homo sapiens) (UniProt O95819); experiment: Inhibition of MAP4K4 at 5 uM
[8] = molecular target: T1, Serine/threonine-protein kinase mTOR; experiment: Inhibition of mTOR kinase activity in epitope-tagged AU1 immunoprecipitates expressed in human 293F cells at 5 uM by autoradiography; format: cell-based
[9] = molecular target: Proto-oncogene tyrosine-protein kinase receptor Ret (Homo sapiens) (UniProt P07949); experiment: Inhibition of RET at 5 uM
[10] = molecular target: Aurora kinase A (Homo sapiens) (UniProt O14965); experiment: Inhibition of STK6 at 5 uM
[11] = molecular target: Phosphatidylinositol 4,5-bisphosphate 3-kinase catalytic subunit alpha isoform (Homo sapiens) (UniProt P42336); experiment: Inhibition of p110-alpha PI3K assessed as p85alpha autophosphorylation at 25 uM by autoradiography
[12] = molecular target: Platelet-derived growth factor receptor beta (Homo sapiens) (UniProt P09619); experiment: Inhibition of PDGFRbeta at 5 uM
[13] = molecular target: Receptor tyrosine-protein kinase erbB-2 (Homo sapiens) (UniProt P04626); experiment: Inhibition of ERBB2 at 5 uM
[14] = molecular target: T1, Serine/threonine-protein kinase mTOR; experiment: Inhibition of IGF1-activated mTOR signaling in human M059J glioma cells assessed as Akt Ser473 site phosphorylation at 10 uM by Western blot; format: cell-based
[15] = system: COS-7; experiment: Inhibition of Akt T308D mutant transfected in african green monkey COS7 cells assessed as insulin-induced […] phosphorylation by Western blot; format: cell-based
[16] = system: Fibroblast; experiment: Induction of apoptosis in TSC1-deficient mouse embryo fibroblasts assessed as level of nucleosomes in cell cytoplasm at 10 uM after 24 hrs; format: functional, cell-based
[17] = molecular target: Tyrosine-protein kinase Lck (Homo sapiens) (UniProt P06239); experiment: Inhibition of LCK at 5 uM
[18] = molecular target: Tyrosine-protein kinase BTK (Homo sapiens) (UniProt Q06187); experiment: Inhibition of BTK at 5 uM
[19] = molecular target: PI3-kinase p110-alpha/p85-alpha (Homo sapiens, UniProt P42336); experiment: Inhibition of p110alpha/p85-alpha PI3K; format: protein-complex assay
[20] = molecular target: Dual specificity mitogen-activated protein kinase kinase 1 (Homo sapiens) (UniProt Q02750); experiment: Inhibition of MAP2K1 at 5 uM
[21] = molecular target: Protein kinase C beta type (Homo sapiens) (UniProt P05771); experiment: Inhibition of PRKCB1 at 5 uM
[22] = molecular target: Mitogen-activated protein kinase 3 (Homo sapiens) (UniProt P27361); experiment: Inhibition of MAPK3 at 5 uM
[23] = molecular target: RAC-alpha serine/threonine-protein kinase (Homo sapiens) (UniProt P31749); experiment: Inhibition of AKT1 at 5 uM
[24] = molecular target: MAP kinase-activated protein kinase 2 (Homo sapiens) (UniProt P49137); experiment: Inhibition of MAPKAPK2 at 5 uM
[25] = molecular target: Ribosomal protein S6 kinase alpha-3 (Homo sapiens) (UniProt P51812); experiment: Inhibition of RPS6KA3 at 5 uM
[26] = molecular target: Tyrosine-protein kinase ABL1 (Homo sapiens) (UniProt P00519); experiment: Inhibition of ABL1 at 5 uM
[27] = Antiproliferative activity against TSC1-deficient mouse embryo fibroblasts assessed as decrease in cell number at 10 uM after 1 day relative to control; format: functional, Fibroblast; set-up: scale not given: the % may be the effect or the level left
[28] = molecular target: T1, Serine/threonine-protein kinase mTOR; experiment: Inhibition of IGF1-activated mTOR signaling in human M059J glioma cells assessed as S6K1 Thr389 site phosphorylation at 10 uM by Western blot; format: cell-based
[29] = molecular target: Serine/threonine-protein kinase pim-1 (Homo sapiens) (UniProt P11309); experiment: Inhibition of PIM1 at 5 uM
[30] = molecular target: Ribosomal protein S6 kinase beta-1 (Mus musculus) (UniProt Q8BSK8); experiment: Blockade of S6K1 phosphorylation in TSC1-deficient mouse embryo fibroblasts assessed as Thr389 phosphorylation at 10 uM after 24 hrs by Western blot
[31] = molecular target: Alpha-1A adrenergic receptor (Homo sapiens) (UniProt P35348); experiment: Inhibition of phenylephrine-induced human adrenergic alpha1A receptor activity expressed in rat-1 fibroblasts assessed as S6K1 Thr389 site phosphorylation by Western blot
[32] = molecular target: Tyrosine-protein kinase JAK3 (Homo sapiens) (UniProt P52333); experiment: Inhibition of JAK3 at 5 uM
[33] = molecular target: Epidermal growth factor receptor (Homo sapiens) (UniProt P00533); experiment: Inhibition of EGFR at 5 uM
[34] = Antiproliferative activity against TSC1-deficient mouse embryo fibroblasts assessed as decrease in cell number at 10 uM after 2 day relative to control; format: functional, Fibroblast; set-up: scale not given: the % may be the effect or the level left
[35] = Inhibition of PDGFR in rat-1 cells assessed as PDGF-induced Erk phosphorylation by Western blot; format: cell-based
[36] = molecular target: Interleukin-1 receptor-associated kinase 4 (Homo sapiens) (UniProt Q9NWZ3); experiment: Inhibition of IRAK4 at 5 uM
[37] = molecular target: Dual specificity tyrosine-phosphorylation-regulated kinase 3 (Homo sapiens) (UniProt O43781); experiment: Inhibition of DYRK3 at 5 uM
[38] = molecular target: Rho-associated protein kinase 1 (Homo sapiens) (UniProt Q13464); experiment: Inhibition of ROCK1 at 5 uM
[39] = molecular target: Ribosomal protein S6 kinase beta-1 (Mus musculus) (UniProt Q8BSK8); experiment: Blockade of S6K1 phosphorylation in TSC1-deficient mouse embryo fibroblasts assessed as Thr389 phosphorylation at 100 nM after 24 hrs by Western blot
[40] = molecular target: Cyclin-dependent kinase 1/cyclin B1 (Homo sapiens) (UniProt P06493+P14635); experiment: Inhibition of CDK1/Cyclin B at 5 uM; format: protein-complex assay
[41] = molecular target: T1, Serine/threonine-protein kinase mTOR; experiment: Inhibition of PDGF-activated mTOR signaling in rat-1 fibroblasts assessed as S6K1 Thr389 site phosphorylation at 10 uM by Western blot
[42] = molecular target: Receptor-type tyrosine-protein kinase FLT3 (Homo sapiens) (UniProt P36888); experiment: Inhibition of FLT3 at 5 uM
[43] = system: RAC-alpha serine/threonine-protein kinase (Homo sapiens), P31749 [S473D]; experiment: Inhibition of Akt S473D mutant transfected in african green monkey COS7 cells assessed as insulin-induced […] phosphorylation by Western blot; format: cell-based; settings: COS-7
[44] = molecular target: T1, Serine/threonine-protein kinase mTOR; experiment: Inhibition of mTOR kinase activity in raptor immunoprecipitates expressed in human 293F cells at 10 uM by autoradiography; format: cell-based
[45] = molecular target: Tyrosine-protein kinase SYK (Homo sapiens) (UniProt P43405); experiment: Inhibition of SYK at 5 uM
[46] = system: Fibroblast; experiment: Antiproliferative activity against TSC1-deficient mouse embryo fibroblasts assessed as decrease in cell number; format: functional, cell-based
[47] = molecular target: T1, Serine/threonine-protein kinase mTOR; experiment: Inhibition of PDGF-activated mTOR signaling in rat-1 fibroblasts assessed as Akt Ser473 site phosphorylation at 10 uM by Western blot
[48] = molecular target: Mitogen-activated protein kinase 14 (Homo sapiens) (UniProt Q16539); experiment: Inhibition of MAPK14 at 5 uM
[49] = molecular target: Fibroblast growth factor receptor 1 (Homo sapiens) (UniProt P11362); experiment: Inhibition of FGFR1 at 5 uM
[50] = molecular target: Casein kinase II subunit alpha (Homo sapiens) (UniProt P68400); experiment: Inhibition of CSNK2A1 at 5 uM
[51] = molecular target: Mast/stem cell growth factor receptor Kit (Homo sapiens) (UniProt P10721); experiment: Inhibition of KIT at 5 uM
[52] = molecular target: Serine/threonine-protein kinase Chk1 (Homo sapiens) (UniProt O14757); experiment: Inhibition of CHEK1 at 5 uM
[53] = molecular target: Vascular endothelial growth factor receptor 2 (Homo sapiens) (UniProt P35968); experiment: Inhibition of KDR at 5 uM
[54] = molecular target: Casein kinase I isoform gamma-2 (Homo sapiens) (UniProt P78368); experiment: Inhibition of CSNK1G2 at 5 uM
[55] = molecular target: Insulin-like growth factor 1 receptor (Homo sapiens) (UniProt P08069); experiment: Inhibition of IGF1R at 5 uM
[56] = molecular target: Phosphorylase b kinase gamma catalytic chain, liver/testis isoform (Homo sapiens) (UniProt P15735); experiment: Inhibition of PHKG2 at 5 uM
[57] = molecular target: Glycogen synthase kinase-3 beta (Homo sapiens) (UniProt P49841); experiment: Inhibition of GSK3B at 5 uM
[58] = molecular target: Angiopoietin-1 receptor (Homo sapiens) (UniProt Q02763); experiment: Inhibition of TEK at 5 uM
[59] = molecular target: DNA-dependent protein kinase catalytic subunit (Homo sapiens, UniProt P78527); experiment: Inhibition of DNA-PK
[60] = Antiproliferative activity against TSC1-deficient mouse embryo fibroblasts assessed as decrease in cell number at 100 nM after 2 day relative to control; format: functional, Fibroblast; set-up: scale not given: the % may be the effect or the level left
[61] = molecular target: RAC-alpha serine/threonine-protein kinase (Mus musculus) (UniProt P31750); experiment: Increase in Akt phosphorylation in TSC1-deficient mouse embryo fibroblasts assessed as Ser 473 phosphorylation at 100 nM after 24 hrs by Western blot

Sequence of Ribosomal protein S6 kinase beta-1 (Mus musculus) (Q8BSK8 whole entry): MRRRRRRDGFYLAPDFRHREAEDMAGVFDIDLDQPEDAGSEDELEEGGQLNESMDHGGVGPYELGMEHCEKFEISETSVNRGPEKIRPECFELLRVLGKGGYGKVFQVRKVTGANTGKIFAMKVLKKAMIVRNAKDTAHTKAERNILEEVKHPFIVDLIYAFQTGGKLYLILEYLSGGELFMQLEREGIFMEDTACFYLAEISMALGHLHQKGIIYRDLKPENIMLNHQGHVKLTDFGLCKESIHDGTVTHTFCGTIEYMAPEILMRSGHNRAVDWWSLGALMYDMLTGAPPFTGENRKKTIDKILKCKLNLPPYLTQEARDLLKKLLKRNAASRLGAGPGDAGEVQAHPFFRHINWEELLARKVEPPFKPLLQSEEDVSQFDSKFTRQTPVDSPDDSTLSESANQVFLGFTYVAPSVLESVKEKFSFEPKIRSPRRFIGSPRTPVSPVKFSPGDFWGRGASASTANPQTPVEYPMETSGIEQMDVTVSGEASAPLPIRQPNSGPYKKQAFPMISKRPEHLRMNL
Sequence of Tyrosine-protein kinase BTK (Homo sapiens) (Q06187 whole entry): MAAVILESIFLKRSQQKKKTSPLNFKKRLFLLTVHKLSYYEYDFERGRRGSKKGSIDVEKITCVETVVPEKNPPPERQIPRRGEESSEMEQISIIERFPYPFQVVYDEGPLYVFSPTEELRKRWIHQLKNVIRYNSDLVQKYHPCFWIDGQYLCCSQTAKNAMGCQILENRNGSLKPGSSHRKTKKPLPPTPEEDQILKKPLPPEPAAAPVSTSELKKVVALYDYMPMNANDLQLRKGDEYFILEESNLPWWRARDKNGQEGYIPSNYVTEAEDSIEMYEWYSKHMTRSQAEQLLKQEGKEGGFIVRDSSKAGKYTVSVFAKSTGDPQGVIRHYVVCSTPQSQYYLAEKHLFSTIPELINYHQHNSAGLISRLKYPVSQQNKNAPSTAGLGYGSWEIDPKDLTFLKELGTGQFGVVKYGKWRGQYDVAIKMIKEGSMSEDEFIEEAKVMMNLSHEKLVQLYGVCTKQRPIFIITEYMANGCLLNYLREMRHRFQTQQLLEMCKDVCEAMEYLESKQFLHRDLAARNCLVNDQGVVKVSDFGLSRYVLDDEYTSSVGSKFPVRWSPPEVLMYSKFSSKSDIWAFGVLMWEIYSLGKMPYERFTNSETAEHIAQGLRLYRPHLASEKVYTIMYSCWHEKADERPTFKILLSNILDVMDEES
Sequence of Fibroblast growth factor receptor 1 (Homo sapiens) (P11362 22-822 limits assumed): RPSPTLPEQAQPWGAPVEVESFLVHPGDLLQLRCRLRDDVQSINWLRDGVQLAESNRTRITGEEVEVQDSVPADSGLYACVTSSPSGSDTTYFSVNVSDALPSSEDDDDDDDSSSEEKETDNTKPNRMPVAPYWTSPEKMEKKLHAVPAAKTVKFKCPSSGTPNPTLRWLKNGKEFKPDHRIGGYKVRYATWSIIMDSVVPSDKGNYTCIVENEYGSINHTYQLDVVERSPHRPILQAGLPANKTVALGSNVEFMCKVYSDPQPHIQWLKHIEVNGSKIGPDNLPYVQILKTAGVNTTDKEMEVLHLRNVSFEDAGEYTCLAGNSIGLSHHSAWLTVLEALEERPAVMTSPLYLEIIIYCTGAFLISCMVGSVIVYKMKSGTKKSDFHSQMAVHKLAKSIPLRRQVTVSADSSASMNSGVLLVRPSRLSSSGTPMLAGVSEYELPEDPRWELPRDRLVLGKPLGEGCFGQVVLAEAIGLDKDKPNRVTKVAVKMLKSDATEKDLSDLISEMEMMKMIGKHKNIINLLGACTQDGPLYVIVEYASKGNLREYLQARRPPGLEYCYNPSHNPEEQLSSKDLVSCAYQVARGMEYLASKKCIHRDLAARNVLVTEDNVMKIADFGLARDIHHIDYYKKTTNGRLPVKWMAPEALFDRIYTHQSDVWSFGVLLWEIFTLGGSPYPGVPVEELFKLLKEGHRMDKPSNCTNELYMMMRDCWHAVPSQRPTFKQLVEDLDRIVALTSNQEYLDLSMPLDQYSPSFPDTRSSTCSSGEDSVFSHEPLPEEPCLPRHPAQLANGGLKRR
Sequence of Ribosomal protein S6 kinase alpha-3 (Homo sapiens) (P51812 whole entry): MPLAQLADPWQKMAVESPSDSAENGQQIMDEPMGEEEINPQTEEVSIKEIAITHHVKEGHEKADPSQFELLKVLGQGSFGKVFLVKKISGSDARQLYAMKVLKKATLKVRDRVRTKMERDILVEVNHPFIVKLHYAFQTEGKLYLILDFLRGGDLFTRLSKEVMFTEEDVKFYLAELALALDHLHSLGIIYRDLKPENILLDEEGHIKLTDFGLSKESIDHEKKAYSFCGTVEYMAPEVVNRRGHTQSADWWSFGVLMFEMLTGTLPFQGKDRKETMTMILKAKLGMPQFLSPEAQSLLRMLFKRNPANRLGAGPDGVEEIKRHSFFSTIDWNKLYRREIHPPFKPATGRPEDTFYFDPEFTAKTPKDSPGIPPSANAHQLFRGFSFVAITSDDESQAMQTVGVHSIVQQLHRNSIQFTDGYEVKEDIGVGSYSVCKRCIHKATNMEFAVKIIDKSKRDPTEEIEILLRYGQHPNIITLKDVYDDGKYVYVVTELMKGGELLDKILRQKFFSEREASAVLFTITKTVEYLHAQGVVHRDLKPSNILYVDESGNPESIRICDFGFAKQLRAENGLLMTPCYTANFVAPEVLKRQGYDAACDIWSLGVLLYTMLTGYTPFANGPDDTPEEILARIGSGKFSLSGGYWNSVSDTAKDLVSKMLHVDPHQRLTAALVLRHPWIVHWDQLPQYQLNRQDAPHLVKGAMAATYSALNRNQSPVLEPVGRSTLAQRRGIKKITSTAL
Sequence of Vascular endothelial growth factor receptor 2 (Homo sapiens) (P35968 whole entry, canonical isoform): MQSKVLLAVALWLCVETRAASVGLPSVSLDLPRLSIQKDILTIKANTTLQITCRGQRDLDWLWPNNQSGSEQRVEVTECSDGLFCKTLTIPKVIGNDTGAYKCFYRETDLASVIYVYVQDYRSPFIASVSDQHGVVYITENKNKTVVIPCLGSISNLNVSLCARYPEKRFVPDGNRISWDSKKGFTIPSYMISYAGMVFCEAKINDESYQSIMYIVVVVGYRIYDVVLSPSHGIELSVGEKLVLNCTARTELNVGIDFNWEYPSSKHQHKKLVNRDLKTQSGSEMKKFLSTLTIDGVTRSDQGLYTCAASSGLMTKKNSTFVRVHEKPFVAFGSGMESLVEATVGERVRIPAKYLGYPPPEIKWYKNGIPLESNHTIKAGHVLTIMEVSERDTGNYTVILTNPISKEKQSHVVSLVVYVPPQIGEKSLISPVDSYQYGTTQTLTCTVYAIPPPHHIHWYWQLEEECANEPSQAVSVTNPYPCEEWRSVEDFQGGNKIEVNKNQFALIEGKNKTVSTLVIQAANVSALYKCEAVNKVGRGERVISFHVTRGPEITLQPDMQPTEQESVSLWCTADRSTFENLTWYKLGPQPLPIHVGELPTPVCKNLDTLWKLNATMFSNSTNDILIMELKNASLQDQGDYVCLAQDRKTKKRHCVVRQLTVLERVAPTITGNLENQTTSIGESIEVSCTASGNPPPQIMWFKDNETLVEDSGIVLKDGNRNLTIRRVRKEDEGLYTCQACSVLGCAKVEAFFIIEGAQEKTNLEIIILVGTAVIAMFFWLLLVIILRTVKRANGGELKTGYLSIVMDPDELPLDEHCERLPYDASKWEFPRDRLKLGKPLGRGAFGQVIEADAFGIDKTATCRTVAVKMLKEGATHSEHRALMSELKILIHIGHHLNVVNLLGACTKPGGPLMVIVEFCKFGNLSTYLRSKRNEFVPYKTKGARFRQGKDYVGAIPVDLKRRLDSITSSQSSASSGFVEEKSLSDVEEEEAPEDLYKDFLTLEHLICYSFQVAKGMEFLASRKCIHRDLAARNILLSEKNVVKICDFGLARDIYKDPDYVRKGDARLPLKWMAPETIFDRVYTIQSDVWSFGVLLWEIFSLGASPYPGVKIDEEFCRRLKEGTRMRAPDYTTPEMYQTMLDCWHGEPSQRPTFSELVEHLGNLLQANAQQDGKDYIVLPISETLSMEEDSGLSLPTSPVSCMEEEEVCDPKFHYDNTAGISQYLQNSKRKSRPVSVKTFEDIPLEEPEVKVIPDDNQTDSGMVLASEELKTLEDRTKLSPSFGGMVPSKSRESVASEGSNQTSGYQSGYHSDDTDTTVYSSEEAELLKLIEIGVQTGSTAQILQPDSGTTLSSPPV
Sequence of Mitogen-activated protein kinase 14 (Homo sapiens) (Q16539 whole entry): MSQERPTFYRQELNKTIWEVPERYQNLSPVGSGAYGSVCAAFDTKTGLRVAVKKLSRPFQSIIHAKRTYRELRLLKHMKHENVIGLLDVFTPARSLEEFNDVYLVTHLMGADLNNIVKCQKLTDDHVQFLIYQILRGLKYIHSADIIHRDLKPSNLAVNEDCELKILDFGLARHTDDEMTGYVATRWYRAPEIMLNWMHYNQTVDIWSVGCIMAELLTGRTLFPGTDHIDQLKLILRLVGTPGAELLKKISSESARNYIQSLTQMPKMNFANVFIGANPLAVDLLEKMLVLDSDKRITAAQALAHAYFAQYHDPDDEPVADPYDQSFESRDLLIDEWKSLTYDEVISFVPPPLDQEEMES
Sequence of Mitogen-activated protein kinase 3 (Homo sapiens) (P27361 whole entry, looked up): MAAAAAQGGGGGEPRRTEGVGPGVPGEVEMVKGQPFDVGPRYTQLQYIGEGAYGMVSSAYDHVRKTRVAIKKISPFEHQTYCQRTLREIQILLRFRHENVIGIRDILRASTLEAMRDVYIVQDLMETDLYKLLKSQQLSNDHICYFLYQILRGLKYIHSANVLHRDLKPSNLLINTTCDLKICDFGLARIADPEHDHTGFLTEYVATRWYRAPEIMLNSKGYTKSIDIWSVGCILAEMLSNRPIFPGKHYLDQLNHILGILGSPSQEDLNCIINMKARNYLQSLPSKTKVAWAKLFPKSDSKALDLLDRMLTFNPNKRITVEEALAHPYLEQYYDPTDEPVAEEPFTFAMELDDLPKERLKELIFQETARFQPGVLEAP

## O=c1cc(N2CCOCC2)oc2c(-c3ccccc3)cccc12 [LY-294002]
[1]
  IC50: 5 µM
[2]
  Activity: Active
[3]
  Activity: Active

## O=c1cc(N2CCOCC2)nc2c3ccccc3ccn12
[4]
  inhibition: 19%
[5]
  inhibition: -3%
[6]
  Activity: inactive
[7]
  inhibition: 3%
[8]
  inhibition: 67%
[9]
  inhibition: -4%
[10]
  inhibition: 44%
[11]
  Activity: inactive
[12]
  inhibition: -4%
[13]
  inhibition: 3%
[14]
  Activity: Active
[15]
  Activity: inactive
[16]
  Activity: Active
[17]
  inhibition: -3%
[18]
  inhibition: 9%
[19]
  IC50: > 100 µM
[20]
  inhibition: -8%
[21]
  inhibition: 8%
[22]
  inhibition: -3%
[23]
  inhibition: 5%
[24]
  inhibition: 40%
[25]
  inhibition: 7%
[26]
  inhibition: -5%
[27]
  Activity: 54%
[28]
  Activity: Active
[29]
  inhibition: 44%
[30]
  Activity: Active
[31]
  Activity: Active
[32]
  inhibition: 2%
[33]
  inhibition: -3%
[34]
  Activity: 84%
[35]
  Activity: inactive
[36]
  inhibition: -5%
[37]
  inhibition: 5%
[38]
  inhibition: 13%
[39]
  Activity: Active
[40]
  inhibition: 3%
[41]
  Activity: Active
[42]
  inhibition: 36%
[43]
  Activity: Active
[44]
  inhibition: 78%
[45]
  inhibition: 14%
[46]
  Activity: Dose-dependent effect
[47]
  Activity: Active
[48]
  inhibition: 17%
[49]
  inhibition: 0%
[50]
  inhibition: 3%
[51]
  inhibition: 13%
[52]
  inhibition: -9%
[53]
  inhibition: 0%
[54]
  inhibition: 2%
[55]
  inhibition: -8%
[56]
  inhibition: -6%
[57]
  inhibition: 0%
[58]
  inhibition: 12%

## O=C(c1ccccc1)c1ccc(N2CCOCC2)cc1O
[1]
  IC50: > 100 µM
[59]
  IC50: 0.27 µM

## CO[C@H]1C[C@@H]2CC[C@@H](C)[C@@](O)(O2)C(=O)C(=O)N2CCCC[C@H]2C(=O)O[C@H]([C@H](C)C[C@@H]2CC[C@@H](O)[C@H](OC)C2)CC(=O)[C@H](C)/C=C(\C)[C@@H](O)[C@@H](OC)C(=O)[C@H](C)C[C@H](C)/C=C/C=C/C=C/1C [SIROLIMUS]
[60]
  Activity: 57%
[61]
  Activity: Active

Reference: ChEMBL document CHEMBL1156476, “Inhibition of mammalian target of rapamycin signaling by 2-(morpholin-1-yl)pyrimido[2,1-alpha]isoquinolin-4-one” (J Biol Chem, 2007)
